Laboratory results published in ChEMBL document CHEMBL5608113, “Targeting of CAF-induced therapy resistance in CRC organoid-stroma co-cultures” (2024).
Square brackets hold non-standard residues; d marks the D form. Peptide text beside a SMILES is read from it. Arg(Me) = CNC(=N)NCCC[C@H](N)C(=O)O; d3Pal = N[C@H](Cc1cccnc1)C(=O)O; d4Pal = N[C@H](Cc1ccncc1)C(=O)O; azaGly = NNC(=O)O

Assays:
Format in all cases: functional, Homo sapiens
Settings in all cases: Homo sapiens, read-out: Cell Viability; for viability at 10 µM: Concentration 10 uM; for viability at 1 µM: Concentration 1 uM
Colon cancer organoid [1] = assay: Targeting of F14 CAF-induced therapy resistance in O14 CRC organoid-stroma co-culture. Cell viability is reported without Gefitinib.
Colon cancer organoid [2] = assay: Targeting of F14 CAF-induced therapy resistance in O23 CRC organoid-stroma co-culture. Cell viability is reported with SN-38.
Colon cancer organoid [3] = assay: Targeting of F14 CAF-induced therapy resistance in O14 CRC organoid-stroma co-culture. Cell viability is reported with Gefitinib.
Colon cancer organoid [4] = assay: Targeting of F14 CAF-induced therapy resistance in O23 CRC organoid-stroma co-culture. Cell viability is reported without Gefitinib.
Colon cancer organoid [5] = assay: Targeting of F14 CAF-induced therapy resistance in O23 CRC organoid-stroma co-culture. Cell viability is reported with Gefitinib.

| Structure (SMILES) | viability at 10 µM (Colon cancer organoid [1]) [%] | viability at 10 µM (Colon cancer organoid [2]) [%] | viability at 10 µM (Colon cancer organoid [3]) [%] | viability at 10 µM (Colon cancer organoid [4]) [%] | viability at 10 µM (Colon cancer organoid [5]) [%] | viability at 1 µM (Colon cancer organoid [1]) [%] | viability at 1 µM (Colon cancer organoid [2]) [%] | viability at 1 µM (Colon cancer organoid [3]) [%] | viability at 1 µM (Colon cancer organoid [4]) [%] | viability at 1 µM (Colon cancer organoid [5]) [%] |
| --- | --- | --- | --- | --- | --- | --- | --- | --- | --- | --- |
| CC[C@H](CC(=O)O)n1c(=O)c2ncccc2n(Cc2cn(C)c3cc(C)cc(C)c23)c1=O [BI-1942] | 93.3 | 65 | 37.9 | 113 | 60.8 |  |  |  |  |  |
| CN(C)C(=O)c1sc2nc(N3CCC(S(C)(=O)=O)CC3)cc(C(F)(F)F)c2c1N [BI-5026] | 108 | 79.7 | 51 | 83.8 | 50 |  |  |  |  |  |
| CCC(F)(F)c1cc(N2CCC(S(C)(=O)=O)CC2)nc2sc(C(N)=O)c(N)c12 [BI-605906] | 125 | 62.6 | 50.7 | 102 | 53.3 |  |  |  |  |  |
| O=c1nc(-c2ccccn2)sc2ccccc12 [BTZO-1] | 117 | 120 | 69.4 | 186 | 83.1 |  |  |  |  |  |
| O=C1NC(c2ccccn2)Sc2ccccc21 (stereo not given) [BTZO-4] | 112 | 100 | 48.9 | 142 | 56.6 |  |  |  |  |  |
| C=CC(=O)Nc1ccc2[nH]c(=O)n(C3CCN(Cc4ccc(-c5nc6cc[nH]c(=O)c6cc5-c5ccccc5)cc4)CC3)c2c1 [Borussertib] | 28.5 | 10.6 | 14.3 | 9.17 | 7.88 |  |  |  |  |  |
| CN([C@@H]1CCc2c(CC(=O)O)c3cc(S(C)(=O)=O)ccc3n2C1)S(=O)(=O)c1ccc(F)cc1 [CRTH2-negative-control] | 98.2 | 54.8 | 37 | 76.2 | 24.9 |  |  |  |  |  |
| CNC(=O)c1ccc(Nc2ncc(C(F)(F)F)c(NCc3nccnc3N(C)S(C)(=O)=O)n2)cc1 [DEFACTINIB] | 76.8 | 39.9 | 17.9 | 78.6 | 40.5 |  |  |  |  |  |
| CCN(CCO)CCCOc1ccc2c(Nc3cc(CC(=O)Nc4cccc(F)c4)[nH]n3)ncnc2c1 [DEFOSBARASERTIB] | 9.69 | 28.3 | 3.88 | 62.1 | 19.2 |  |  |  |  |  |
| Cn1c(C2(NC(=O)c3ccc4c(C5CCCC5)c(-c5ncc(Br)cn5)n(C)c4c3)CCC2)nc2ccc(/C=C/C(=O)O)cc21 [DELEOBUVIR] | 126 | 60.4 | 50.5 | 112 | 94.6 |  |  |  |  |  |
| C[C@H](NC(=O)Nc1cc2[nH]ncc2c(CO)n1)c1ccccn1 [ERKi-NC] | 71.3 | 62.2 | 21.8 | 94.9 | 40.9 |  |  |  |  |  |
| C[C@@H](NC(=O)Nc1cc2[nH]ncc2c(CO)n1)c1ccccc1 [ERKi] | 49.2 | 14.3 | 10.3 | 14.3 | 4.5 |  |  |  |  |  |
| CN(C(=O)c1ccccc1)c1cc(N(C)c2ccc3c(c2)CCc2ccc(C(=O)NCCN4CCOCC4)cc2C3=O)ccc1F [FM-743] | 142 | 59.3 | 36.5 | 141 | 83.7 |  |  |  |  |  |
| O=C(NCCN1CCOCC1)c1ccc2c(c1)C(=O)c1ccc(Nc3ccc(F)c(NC(=O)c4ccccc4)c3)cc1CC2 [FS-694] | 156 | 54 | 28.9 | 108 | 40 |  |  |  |  |  |
| CC(C)(C)OC(=O)N1CCCC1CNC1CCC(c2cc(F)ccc2F)(S(=O)(=O)c2ccc(Cl)cc2)CC1 (stereo not given) [GSI-NC] | 74.5 | 78.6 | 52.1 | 109 | 42.1 |  |  |  |  |  |
| CC(=O)Nc1c(F)cc(C(=O)N[C@H]2CC[C@H](O)CC2)cc1O[C@@H](C)c1ccccc1 [GSK046] | 121 | 48.8 | 25.9 | 100 | 55.8 |  |  |  |  |  |
| CNC(=O)c1cc(C(=O)NC2CC2)cn(Cc2ccccc2)c1=O [GSK620] | 116 | 66.8 | 24.6 | 111 | 60.9 |  |  |  |  |  |
| COCc1nc2cnc3cc(-c4c(C)noc4C)c(OC[C@H]4CCNC4)cc3c2n1[C@H](C)c1ccccc1 [GSK778] | 40 | 48.8 | 8.04 | 95.6 | 47.2 |  |  |  |  |  |

| Structure (SMILES) | viability at 10 µM (Colon cancer organoid [1]) [%] | viability at 10 µM (Colon cancer organoid [2]) [%] | viability at 10 µM (Colon cancer organoid [3]) [%] | viability at 10 µM (Colon cancer organoid [4]) [%] | viability at 10 µM (Colon cancer organoid [5]) [%] | viability at 1 µM (Colon cancer organoid [1]) [%] | viability at 1 µM (Colon cancer organoid [2]) [%] | viability at 1 µM (Colon cancer organoid [3]) [%] | viability at 1 µM (Colon cancer organoid [4]) [%] | viability at 1 µM (Colon cancer organoid [5]) [%] |
| --- | --- | --- | --- | --- | --- | --- | --- | --- | --- | --- |
| Cc1cc2c(-c3ccco3)cnc(N[C@@H]3CCN(C)C[C@H]3C(=O)NC3CCCCC3)c2[nH]c1=O [GSK789] | 84.8 | 38.8 | 26.6 | 72.5 | 29.8 |  |  |  |  |  |
| Cc1cc2c(-c3ccco3)cnc(N[C@H]3CCN(C)C[C@@H]3C(=O)NC3CCCCC3)c2[nH]c1=O [GSK791] | 111 | 81.3 | 26.2 | 76 | 50 |  |  |  |  |  |
| CNC(=O)c1cc(C(=O)N[C@H]2[C@@H]3COC[C@@H]32)cc2c1O[C@@H](CF)[C@@H]2c1ccccc1 [GSK943] | 75.9 | 64.3 | 30.9 | 67.7 | 76.1 |  |  |  |  |  |
| CNC(=O)c1cc(C(=O)N[C@H]2[C@@H]3COC[C@@H]32)cc2c1O[C@H](CF)[C@H]2c1ccccc1 [GSK973] | 99.3 | 46.5 | 23.6 | 102 | 58.5 |  |  |  |  |  |
| O=C(O)c1ccc(-c2c[nH]c3ncc(-c4ccccc4)cc23)cc1C1CCCC1 [GSK-650394] | 104 | 82.6 | 65 | 136 | 93.5 |  |  |  |  |  |
| Cc1c(Oc2ccc(F)cc2)c(OC(C)C)nn1-c1ccc(C2CC2)cn1 [IPP/CNRS-A019] | 84.4 | 75.2 | 50.2 | 147 | 86.4 |  |  |  |  |  |
| COCCc1ccc(-c2c(C)nc3c(N4CCOCC4)ccnn23)cn1 [JNJ-42396302] | 122 | 70.4 | 65.9 | 143 | 97 |  |  |  |  |  |
| COc1nc2ccc([C@@](O)(c3ccccc3)C3CCN(C(C)=O)CC3)cc2c(Cl)c1Cc1ccc(-n2cccn2)cc1 [JNJ-54119936] | 146 | 62.6 | 45.8 | 106 | 64.3 |  |  |  |  |  |
| CC(=O)Nc1ncc(CN2CCC[C@H](Cc3cc(C)nc(C)c3)C2)s1 [JNJ-65355394] | 106 | 44.3 | 47.9 | 103 | 88.8 |  |  |  |  |  |
| CC(=O)Nc1nc(CN2CCC[C@H](Cc3cc(C)nc(C)c3)C2)cs1 [JNJ-73924149] | 109 | 79.9 | 46.2 | 125 | 79.3 |  |  |  |  |  |
| N#CN1CC[C@@H](C(=O)Nc2nc3c(s2)CN(C(=O)CN=[N+]=[N-])CC3)C1 [JYQ88] | 137 | 78.4 | 34.4 | 76.5 | 45.5 |  |  |  |  |  |
| CNC(=N)NCCC[C@H](NC(=O)[C@H](CC(C)C)NC(=O)NNC(=O)[C@H](Cc1ccccc1)NC(=O)[C@H](CO)NC(=O)[C@H](CC(N)=O)NC(=O)[C@@H](Cc1ccncc1)NC(=O)[C@H](N)Cc1ccc(O)cc1)C(=O)N[C@@H](Cc1ccccc1)C(N)=O [KISS1-305] (H-[dY][d4Pal]NSF[azaGly]L[Arg(Me)]F-NH2) | 119 | 61.3 | 52.8 | 97.6 | 66.9 |  |  |  |  |  |
| CNC(=N)NCCC[C@H](NC(=O)[C@H](CC(C)C)NC(=O)NNC(=O)[C@H](Cc1ccccc1)NC(=O)[C@H](CO)NC(=O)[C@H](CC(N)=O)NC(=O)[C@@H](Cc1cccnc1)NC(=O)[C@H](N)Cc1ccc(O)cc1)C(=O)NCC(N)=O [KISS1-543] (H-[dY][d3Pal]NSF[azaGly]L[Arg(Me)]G-NH2) | 103 | 71.6 | 62.9 | 93.8 | 49.7 |  |  |  |  |  |
| CCS(=O)(=O)Nc1ccc(Oc2ccc(F)cc2F)c(-c2cn(C)c(=O)c3[nH]ccc23)c1 [MIVEBRESIB] | 5.68 | 25.4 | 1.95 | 37.5 | 29.2 |  |  |  |  |  |
| CN([C@@H]1CCc2c(CC(=O)O)c3ccccc3n2C1)S(=O)(=O)c1ccc(F)cc1 [MK-7246] | 88.6 | 76.2 | 43.4 | 79.7 | 46.3 |  |  |  |  |  |
| C[C@@H]1CN(c2cc(-c3nn(C)c4ccc(OC5(C)CC5)cc34)ncn2)C[C@H](C)O1 [MLi-2-NC] | 77.2 | 62.4 | 28.6 | 107 | 40.9 |  |  |  |  |  |
| C[C@@H]1CN(c2cc(-c3n[nH]c4ccc(OC5(C)CC5)cc34)ncn2)C[C@H](C)O1 [MLi-2] |  |  |  |  |  | 113 | 46.4 | 27.4 | 102 | 41 |
| O=S(=O)(NC1CCC(c2cc(F)ccc2F)(S(=O)(=O)c2ccc(Cl)cc2)CC1)C(F)(F)F (stereo not given) [MRK-560] |  |  |  |  |  | 73.7 | 64.4 | 32.8 | 130 | 60.6 |
